Measurements: patent US4382939A, “3-[2-(Mono-and dialkylamino)propyl]-1,2,3,4-tetrahydro-5H-[1]benzopyrano[3,4-C]pyridin- 5-ones useful for treating bronchospastic diseases” (Warner Lambert Company, priority 1982, dated 1983)
Where a name gives a salt, the structure may show the parent alone.

Key:
[1] = system: salivation (pilocarpine nitrate); test: Inhibition of pilocarpine-induced salivation in anesthetized dogs; assay type: in vivo, mongrel dogs; conditions: Canis lupus familiaris, iv, cumulative i.v. doses, pilocarpine-induced salivary flow, read-out: ID50 Salivation
Description: (§1) In an additional testing procedure, mongrel dogs of either sex, 10.6 to 15.3 kg, are anesthetized with sodium pentobarbital, 30 mg/kg i.v. and then prepared for the monitoring of pulmonary mechanics. A Buxco pulmonary mechanics computer is used to calculate pulmonary resistance, dynamic compliance, and tidal volume from transpulmonary pressure and flow data. Respiratory rate, heart rate and mean arterial blood pressure are also monitored. The femoral vein is cannulated for the delivery of drugs. Pilocarpine nitrate (0.2 mg/kg/hr) is than infused to induce a bronchospasm and salivary flow. […] Salivary output is collected from a catheterized Wharton's duct at five minute intervals. After salivation has stabilized, 3 control collections are taken at 5 minute intervals followed by a series of cumulative i.v. doses of test compound (1, 3, 10, 30, 100, 300, 1000, 3000, and 10,000 μg/kg) that are injected every 5 minutes for 45 minutes. The percent inhibition of both the bronchospasm and salivation are calculated for each dose with a return to pre-pilocarpine resistance levels or cessation of salivation equal to a 100% inhibition.

[2] = system: collapse on exposure to an aerosol of methacholine; test: Anticholinergic test: prolongation of collapse time in conscious guinea pigs exposed to an aerosol of methacholine; assay type: in vivo; conditions: guinea pig, 25 mg/kg intraperitoneally; 10 minutes methacholine aerosol; Control 1.9 to 2.0
Description: The compounds of the invention display anticholinergic properties when tested by the following procedure: Conscious guinea pigs, six at a time, are put into a sealed chamber and exposed for 10 minutes to an aerosol of methacholine. Untreated animals or those treated with vehicle will collapse in 1.9±0.1 minutes. Groups of animals are injected intraperitoneally with 25 mg/kg of test compound and exposed in the chamber under the same conditions. Compounds which prolong the collapse time past that of the control animals are considered active.

[3] = system: bronchospasm (pilocarpine nitrate); test: Inhibition of pilocarpine-induced bronchospasm in anesthetized dogs (pulmonary mechanics); assay type: in vivo, mongrel dogs; conditions: for ED50: Canis lupus familiaris, iv, anesthetized dogs, cumulative i.v. doses, pilocarpine-induced bronchospasm, read-out: ID50 Bronchospasm; for Pulmonary Selectivity*: dogs, i.v., >1 indicates more potent as a bronchodilator than as an antisecretory agent
Description: as §1

Row | Structure (SMILES) | ED50 [1] [mg/kg] | (Minutes Protection) [2] [min] | ED50 [3] [mg/kg] | Pulmonary Selectivity* [3]
1 | CCOc1cc2oc(=O)c3c(c2cc1OCC)CCN(CC(C)N(C)C)C3.Cl.Cl (stereo not shown) [EtO EtO H Me Me, 3-[2-(Dimethylamino)propyl]-1,2,3,4-tetrahydro-8,9-diethoxy-5H-[1]benzopyrano[3,4-c]pyridin-5-one dihydrochloride] | 0.303 | 7.3 | 0.147 | 2.1
2 | CCN(CC)C(C)CN1CCc2c(c(=O)oc3ccccc23)C1 (stereo not shown) [H H H Et Et, 3-[2-(Diethylamino)propyl]-1,2,3,4-tetrahydro-5H-[1]benzopyrano[3,4-c]pyridin-5-one] | 2.31 | 10.0 | 0.336 | 7
3 | CCNC(C)CN1CCc2c(c(=O)oc3ccccc23)C1 (stereo not shown) [H H H Et H, 3-[2-(Ethylamino)propyl]-1,2,3,4-tetrahydro-5H-[1]benzopyrano[3,4-c]pyridin-5-one] | 1.23 | 10.0 | 0.21 | 6
4 | CC(CN1CCc2c(c(=O)oc3ccccc23)C1)N(C)C (stereo not shown) [H H H Me Me, 3-[2-(Dimethylamino)propyl]-1,2,3,4-tetrahydro-5H-[1]benzopyrano[3,4-c]pyridin-5-one] | 4.15 | 10.0 | 0.192 | 22
5 | CCN(CC)C(C)CN1CCc2c(c(=O)oc3cc(C)ccc23)C1 (stereo not shown) [H Me H Et Et, 3-[2-(Diethylamino)propyl]-1,2,3,4-tetrahydro-8-methyl-5H-[1]benzopyrano[3,4-c]pyridin-5-one] | 0.51 | 6.6 | 0.111 | 4.6
6 | CCN(C)C(C)CN1CCc2c(c(=O)oc3cc(C)ccc23)C1 (stereo not shown) [H Me H Me Et, 3-[2-(Ethylmethylamino)propyl]-1,2,3,4-tetrahydro-8-methyl-5H-[1]benzopyrano[3,4-c]pyridin-5-one] | 0.336 | 8.8 | 0.15 | 2.2
7 | Cc1ccc2c3c(c(=O)oc2c1)CN(CC(C)N(C)C)CC3 (stereo not shown) [H Me H Me Me, 3-[2-(Dimethylamino)propyl]-1,2,3,4-tetrahydro-8-methyl-5H-[1]-benzopyrano[3,4-c]pyridin-5-one] | 0.421 | 10.0 | 0.114 | 3.7
8 | CCN(C)C(C)CN1CCc2c(c(=O)oc3cc(OC)ccc23)C1 (stereo not shown) [H MeO H Me Et, 3-[2-(Ethylmethylamino)propyl]-1,2,3,4-tetrahydro-8-methoxy-5H-[1]benzopyrano[3,4-c]pyridin-5-one] | – | 9.1 | – | –
9 | CNC(C)CN1CCc2c(c(=O)oc3cc(OC)ccc23)C1 (stereo not shown) [H MeO H Me H, 1,2,3,4-Tetrahydro-8-methoxy-3-[2-(methylamino)propyl]-5H-[1]benzopyrano[3,4-c]pyridin-5-one] | – | 8.6 | – | –
10 | COc1ccc2c3c(c(=O)oc2c1)CN(CC(C)N(C)C)CC3.Cl.Cl (stereo not shown) [H MeO H Me Me, 3-[2-(Dimethylamino)propyl]-1,2,3,4-tetrahydro-8-methoxy-5H-[1]benzopyrano[3,4-c]pyridin-5-one dihydrochloride] | – | 10.0 | – | –
11 | CCCCN(C)C(C)CN1CCc2c(c(=O)oc3cc(OC)ccc23)C1 (stereo not shown) [H MeO H Me n-Bu] | – | 8.6 | – | –
12 | CCCN(C)C(C)CN1CCc2c(c(=O)oc3cc(OC)ccc23)C1 (stereo not shown) [H MeO H Me n-Pr, 1,2,3,4-Tetrahydro-8-methoxy-3[2-(methylpropylamino)propyl]-5H-[1]benzopyrano[3,4-c]pyridin-5-one] | – | 10.0 | – | –
13 | CCN(CC)C(C)CN1CCc2c(c(=O)oc3c(OC)c(OC)ccc23)C1 (stereo not shown) [H MeO MeO Et Et, 3-[2-(Diethylamino)propyl]-1,2,3,4-tetrahydro-7,8-dimethoxy-5H-[1]benzopyrano[3,4-c]pyridin-5-one] | – | 7.6 | – | –
14 | CCNC(C)CN1CCc2c(c(=O)oc3c(OC)c(OC)ccc23)C1 (stereo not shown) [H MeO MeO Et H, 3-[2-(Ethylamino)propyl]-1,2,3,4-tetrahydro-7,8-dimethoxy-5H-[1] benzopyrano[3,4-c]pyridin-5-one] | – | 9.1 | – | –
15 | CCN(C)C(C)CN1CCc2c(c(=O)oc3c(OC)c(OC)ccc23)C1.Cl.Cl (stereo not shown) [H MeO MeO Me Et, 3-[2-(Ethylmethylamino)propyl]-1,2,3,4-tetrahydro-7,8-dimethoxy-5H-[1]benzopyrano[3,4-c]pyridin-5-one dihydrochloride] | – | 5.0 | – | –
16 | COc1ccc2c3c(c(=O)oc2c1OC)CN(CC(C)N(C)C)CC3.Cl.Cl (stereo not shown) [H MeO MeO Me Me, 3-[2-(Dimethylamino)propyl]-1,2,3,4-tetrahydro-7,8-dimethoxy-5H-[1]benzopyrano[3,4-c]pyridin-5-one dihydrochloride] | – | 5.5 | – | –
17 | Cc1cc2oc(=O)c3c(c2cc1C)CCN(CC(C)N(C)C)C3 (stereo not shown) [Me Me H Me Me, 3-[2-(Dimethylamino)propyl]-1,2,3,4-tetrahydro-8,9-dimethyl-5H-[1]benzopyrano[3,4-c]pyridin-5-one] | – | 4.8 | – | –
18 | CCCCN(CC)C(C)CN1CCc2c(c(=O)oc3cc(OC)c(OC)cc23)C1 (stereo not shown) [MeO MeO H Et Bu, 3-[2-(Butylethylamino)propyl]-1,2,3,4-tetrahydro-8,9-dimethoxy-5H-[1]benzopyrano[3,4-c]pyridin-5-one] | – | 3.7 | – | –
19 | CCN(CC)C(C)CN1CCc2c(c(=O)oc3cc(OC)c(OC)cc23)C1.Cl.Cl (stereo not shown) [MeO MeO H Et Et, 3-[2-(Diethylamino)propyl]-1,2,3,4-tetrahydro-8,9-dimethoxy-5H-[1]benzopyrano[3,4-c]pyridin-5-one dihydrochloride] | 0.257 | 7.8 | 0.073 | 3.5
20 | CCCN(CC)C(C)CN1CCc2c(c(=O)oc3cc(OC)c(OC)cc23)C1 (stereo not shown) [MeO MeO H Et n-Pr, 3-[2-(Ethylpropylamino)propyl]-1,2,3,4-tetrahydro-8,9-dimethoxy-5H-[1]benzopyrano[3,4-c]pyridin-5-one] | – | 3.7 | – | –
21 | CCN(CC(C)C)C(C)CN1CCc2c(c(=O)oc3cc(OC)c(OC)cc23)C1 (stereo not shown) [MeO MeO H Et s-Bu, 3-[2-[Ethyl(2-methylpropyl)amino]propyl]-1,2,3,4-tetrahydro-8,9-dimethoxy-5H-[1]benzopyrano[3,4-c]pyridin-5-one] | – | 5.4 | – | –
22 | CCN(C)C(C)CN1CCc2c(c(=O)oc3cc(OC)c(OC)cc23)C1.Cl.Cl (stereo not shown) [MeO MeO H Me Et, 3-[2-(Ethylmethylamino)propyl]-1,2,3,4-tetrahydro-8,9-dimethoxy-5H-[1]benzopyrano[3,4-c]pyridin-5-one dihydrochloride] | – | 6.0 | – | –
23 | COc1cc2oc(=O)c3c(c2cc1OC)CCN(CC(C)N(C)C)C3.Cl.Cl (stereo not shown) [MeO MeO H Me Me, 3-[2-(Dimethylamino)propyl]-1,2,3,4-tetrahydro-8,9-dimethoxy-5H-[1]benzopyrano[3,4-c]pyridin-5-one dihydrochloride] | 0.441 | 5.2 | 0.098 | 4.5
24 | CCCN(C)C(C)CN1CCc2c(c(=O)oc3cc(OC)c(OC)cc23)C1 (stereo not shown) [MeO MeO H Me n-Pr, 1,2,3,4-Tetrahydro-8,9-dimethoxy-3-[2-(methylpropylamino)propyl]-5H-[1]benzopyrano[3,4-c]pyridin-5-one] | – | 2.5 | – | –
25 | CC(CN1CCc2c(c(=O)oc3cc4c(cc23)OCO4)C1)N(C)C (stereo not shown) [OCH2O H Me Me, 3-[2-(Dimethylamino)propyl]-1,2,3,4-tetrahydro-5H-[1,3]benzodioxolo]5',6':5,6]pyrano[3,4-c]pyridin-5-one dihydrochloride] | – | 2.3 | – | –
